Species: Rattus norvegicus
Assay: Open TG-GATES - Regimen: Daily Repeat
Assay type: toxicity, organism-based, Sprague-Dawley
Design: regimen Daily Repeat, gender Male, age 6 weeks
Conditions: in vivo, iv, route intravenous injection; for APTT / Bas / Eos / Fbg / Hb / Ht / Lym / MCH / MCHC / MCV / Mono / Neu / PT / Plat / RBC / Ret / WBC: tissue Blood; for KIDNEY_L / KIDNEY_R / KIDNEY_TOTAL: tissue Kidney; for LIVER: tissue Liver; for ALP / ALT / AST / BUN / CRE / Ca / Cl / DBIL / GLC / IP / K / LDH / Na / PL / RALB / TBIL / TC / TG / TP / gamma-GTP: tissue Plasma
[1] = 0 mg/kg, 72 h, dose level Control, time 3 day
[2] = 0 mg/kg, […], dose level Control, time 7 day
[3] = 0 mg/kg, […], dose level Control, time 14 day
[4] = 0 mg/kg, […], dose level Control, time 28 day
[5] = 300 mg/kg, 72 h, dose level Low, time 3 day
[6] = 300 mg/kg, […], dose level Low, time 7 day
[7] = 300 mg/kg, […], dose level Low, time 14 day
[8] = 300 mg/kg, […], dose level Low, time 28 day

## CC(=O)OCC1=C(C(=O)O)N2C(=O)[C@@H](NC(=O)Cc3cccs3)[C@H]2SC1 [CEPHALOTHIN]
[1]
  TERMINAL_BW: 230.4 g
  APTT: 21.2 s
  Bas: 0%
  Eos: 0.8%
  Fbg: 292.4 mg/dL
  Hb: 13.4 g/dL
  Ht: 38.5%
  Lym: 82%
  MCH: 21.2 pg
  MCHC: 34.9%
  MCV: 60.8 fL
  Mono: 3.4%
  Neu: 13%
  PT: 16.1 s
  Plat: 120.3 x10_4/uL
  RBC: 633 x10_4/ul
  Ret: 6.8%
  WBC: 100.4 x10_2/uL
  KIDNEY_L: 1 g
  KIDNEY_R: 1 g
  KIDNEY_TOTAL: 2 g
  LIVER: 10.5 g
  ALP: 1655.6 IU/L
  ALT: 38.8 IU/L
  AST: 69.2 IU/L
  BUN: 18 mg/dL
  CRE: 0.2 mg/dL
  Ca: 10.8 mg/dL
  Cl: 105.4 meq/L
  DBIL: 0 mg/dL
  GLC: 185.8 mg/dL
  IP: 6.9 mg/dL
  K: 4.6 meq/L
  LDH: 153.6 IU/L
  Na: 140.8 meq/L
  PL: 147.2 mg/dL
  RALB: 3 g/dL
  TBIL: 0.002 mg/dL
  TC: 79.2 mg/dL
  TG: 108.4 mg/dL
  TP: 5.3 g/dL
  gamma-GTP: 1.6 IU/L
[2]
  TERMINAL_BW: 261.3 g
  APTT: 22.6 s
  Bas: 0%
  Eos: 0.8%
  Fbg: 303 mg/dL
  Hb: 13.2 g/dL
  Ht: 37.9%
  Lym: 78.6%
  MCH: 20.5 pg
  MCHC: 34.8%
  MCV: 59 fL
  Mono: 2.2%
  Neu: 17.8%
  PT: 17 s
  Plat: 139.9 x10_4/uL
  RBC: 642.6 x10_4/ul
  Ret: 5.7%
  WBC: 107.7 x10_2/uL
  KIDNEY_L: 1 g
  KIDNEY_R: 1.1 g
  KIDNEY_TOTAL: 2.1 g
  LIVER: 11.4 g
  ALP: 1413.8 IU/L
  ALT: 35 IU/L
  AST: 71.2 IU/L
  BUN: 18.6 mg/dL
  CRE: 0.2 mg/dL
  Ca: 10.7 mg/dL
  Cl: 107 meq/L
  DBIL: 0 mg/dL
  GLC: 182 mg/dL
  IP: 7 mg/dL
  K: 4.4 meq/L
  LDH: 177.6 IU/L
  Na: 142 meq/L
  PL: 121.8 mg/dL
  RALB: 2.9 g/dL
  TBIL: 0.004 mg/dL
  TC: 64.8 mg/dL
  TG: 87.6 mg/dL
  TP: 5.3 g/dL
  gamma-GTP: 1.8 IU/L
[3]
  TERMINAL_BW: 318.6 g
  APTT: 23.5 s
  Bas: 0%
  Eos: 1%
  Fbg: 268.2 mg/dL
  Hb: 14.2 g/dL
  Ht: 39.3%
  Lym: 76.4%
  MCH: 20.3 pg
  MCHC: 36.1%
  MCV: 56.2 fL
  Mono: 3%
  Neu: 18.8%
  PT: 16.1 s
  Plat: 126.1 x10_4/uL
  RBC: 698.6 x10_4/ul
  Ret: 4.8%
  WBC: 110.4 x10_2/uL
  KIDNEY_L: 1.2 g
  KIDNEY_R: 1.3 g
  KIDNEY_TOTAL: 2.5 g
  LIVER: 12.9 g
  ALP: 1425 IU/L
  ALT: 34.4 IU/L
  AST: 63.4 IU/L
  BUN: 16.8 mg/dL
  CRE: 0.2 mg/dL
  Ca: 10.9 mg/dL
  Cl: 104.4 meq/L
  DBIL: 0 mg/dL
  GLC: 185.8 mg/dL
  IP: 6.9 mg/dL
  K: 4.4 meq/L
  LDH: 119.2 IU/L
  Na: 141.4 meq/L
  PL: 138 mg/dL
  RALB: 3.1 g/dL
  TBIL: 0.01 mg/dL
  TC: 67.8 mg/dL
  TG: 96.8 mg/dL
  TP: 5.8 g/dL
  gamma-GTP: 3.2 IU/L
[4]
  TERMINAL_BW: 376.6 g
  APTT: 26.5 s
  Bas: 0%
  Eos: 1%
  Fbg: 291.4 mg/dL
  Hb: 15.6 g/dL
  Ht: 42.3%
  Lym: 83.6%
  MCH: 19.8 pg
  MCHC: 36.9%
  MCV: 53.6 fL
  Mono: 2.6%
  Neu: 12%
  PT: 16.3 s
  Plat: 108 x10_4/uL
  RBC: 789.2 x10_4/ul
  Ret: 2.4%
  WBC: 108.4 x10_2/uL
  KIDNEY_L: 1.3 g
  KIDNEY_R: 1.3 g
  KIDNEY_TOTAL: 2.5 g
  LIVER: 14.2 g
  ALP: 967 IU/L
  ALT: 31.8 IU/L
  AST: 64.2 IU/L
  BUN: 18.2 mg/dL
  CRE: 0.2 mg/dL
  Ca: 10.4 mg/dL
  Cl: 105.4 meq/L
  DBIL: 0 mg/dL
  GLC: 188.6 mg/dL
  IP: 5.9 mg/dL
  K: 4.3 meq/L
  LDH: 181.6 IU/L
  Na: 142.6 meq/L
  PL: 134.8 mg/dL
  RALB: 3.1 g/dL
  TBIL: 0.004 mg/dL
  TC: 64 mg/dL
  TG: 131 mg/dL
  TP: 6.1 g/dL
  gamma-GTP: 1 IU/L
[5]
  TERMINAL_BW: 226.8 g
  APTT: 22.4 s
  Bas: 0%
  Eos: 1.2%
  Fbg: 291.2 mg/dL
  Hb: 13.4 g/dL
  Ht: 38.4%
  Lym: 84.4%
  MCH: 21.1 pg
  MCHC: 35%
  MCV: 60.2 fL
  Mono: 2.8%
  Neu: 10.6%
  PT: 16.2 s
  Plat: 131.5 x10_4/uL
  RBC: 636.8 x10_4/ul
  Ret: 6%
  WBC: 103.7 x10_2/uL
  KIDNEY_L: 1 g
  KIDNEY_R: 1 g
  KIDNEY_TOTAL: 1.9 g
  LIVER: 10.3 g
  ALP: 1513.6 IU/L
  ALT: 37.8 IU/L
  AST: 68.2 IU/L
  BUN: 15.6 mg/dL
  CRE: 0.1 mg/dL
  Ca: 10.7 mg/dL
  Cl: 106 meq/L
  DBIL: 0 mg/dL
  GLC: 175.4 mg/dL
  IP: 6.1 mg/dL
  K: 4.6 meq/L
  LDH: 166 IU/L
  Na: 140.4 meq/L
  PL: 140 mg/dL
  RALB: 3.1 g/dL
  TBIL: 0.008 mg/dL
  TC: 75.8 mg/dL
  TG: 106.4 mg/dL
  TP: 5.5 g/dL
  gamma-GTP: 1.6 IU/L
[6]
  TERMINAL_BW: 260.2 g
  APTT: 22.5 s
  Bas: 0%
  Eos: 0.8%
  Fbg: 310 mg/dL
  Hb: 13.5 g/dL
  Ht: 38.9%
  Lym: 88.8%
  MCH: 20.8 pg
  MCHC: 34.6%
  MCV: 60.2 fL
  Mono: 1.6%
  Neu: 7.8%
  PT: 16.7 s
  Plat: 122.1 x10_4/uL
  RBC: 647 x10_4/ul
  Ret: 5.6%
  WBC: 91 x10_2/uL
  KIDNEY_L: 1.1 g
  KIDNEY_R: 1.1 g
  KIDNEY_TOTAL: 2.1 g
  LIVER: 11.8 g
  ALP: 1472.6 IU/L
  ALT: 34.4 IU/L
  AST: 68.2 IU/L
  BUN: 17.8 mg/dL
  CRE: 0.2 mg/dL
  Ca: 10.6 mg/dL
  Cl: 106.2 meq/L
  DBIL: 0 mg/dL
  GLC: 174.4 mg/dL
  IP: 7 mg/dL
  K: 4.4 meq/L
  LDH: 178.2 IU/L
  Na: 141.4 meq/L
  PL: 144.6 mg/dL
  RALB: 3 g/dL
  TBIL: 0.004 mg/dL
  TC: 71.2 mg/dL
  TG: 146.8 mg/dL
  TP: 5.5 g/dL
  gamma-GTP: 1.6 IU/L
[7]
  TERMINAL_BW: 304.3 g
  APTT: 24.3 s
  Bas: 0%
  Eos: 1%
  Fbg: 257.6 mg/dL
  Hb: 14.4 g/dL
  Ht: 40.4%
  Lym: 89.8%
  MCH: 20.7 pg
  MCHC: 35.6%
  MCV: 58.2 fL
  Mono: 1.8%
  Neu: 6.8%
  PT: 16.1 s
  Plat: 121.1 x10_4/uL
  RBC: 694 x10_4/ul
  Ret: 4.7%
  WBC: 103.2 x10_2/uL
  KIDNEY_L: 1.2 g
  KIDNEY_R: 1.3 g
  KIDNEY_TOTAL: 2.5 g
  LIVER: 12.3 g
  ALP: 1293.4 IU/L
  ALT: 29.6 IU/L
  AST: 57.8 IU/L
  BUN: 16.8 mg/dL
  CRE: 0.2 mg/dL
  Ca: 10.9 mg/dL
  Cl: 106.2 meq/L
  DBIL: 0 mg/dL
  GLC: 179.4 mg/dL
  IP: 6.9 mg/dL
  K: 4.2 meq/L
  LDH: 109.2 IU/L
  Na: 142.2 meq/L
  PL: 142.6 mg/dL
  RALB: 3.1 g/dL
  TBIL: 0.01 mg/dL
  TC: 75 mg/dL
  TG: 103.4 mg/dL
  TP: 5.7 g/dL
  gamma-GTP: 2 IU/L
[8]
  TERMINAL_BW: 378.7 g
  APTT: 25.4 s
  Bas: 0%
  Eos: 1.6%
  Fbg: 293.8 mg/dL
  Hb: 15.4 g/dL
  Ht: 42.1%
  Lym: 87.4%
  MCH: 19.1 pg
  MCHC: 36.6%
  MCV: 52.3 fL
  Mono: 2.4%
  Neu: 8.2%
  PT: 16.2 s
  Plat: 107.1 x10_4/uL
  RBC: 805.4 x10_4/ul
  Ret: 2.3%
  WBC: 92.3 x10_2/uL
  KIDNEY_L: 1.4 g
  KIDNEY_R: 1.4 g
  KIDNEY_TOTAL: 2.8 g
  LIVER: 14.2 g
  ALP: 1007.4 IU/L
  ALT: 30.4 IU/L
  AST: 58.8 IU/L
  BUN: 16.6 mg/dL
  CRE: 0.2 mg/dL
  Ca: 10.5 mg/dL
  Cl: 106.8 meq/L
  DBIL: 0.004 mg/dL
  GLC: 168.4 mg/dL
  IP: 5.6 mg/dL
  K: 4.1 meq/L
  LDH: 158 IU/L
  Na: 143.2 meq/L
  PL: 134.2 mg/dL
  RALB: 3.1 g/dL
  TBIL: 0.006 mg/dL
  TC: 65.6 mg/dL
  TG: 141.2 mg/dL
  TP: 5.9 g/dL
  gamma-GTP: 1 IU/L
